Results: patent US6764999B2, “Nasal delivery of parasiticides” (priority 2002, dated 2004)

Assays:
[1] = tested on: Trichostrongylus colubriformis; conditions: cited from earlier work
most parasites = conditions: cattle; cited from earlier work
[2] = injection, about 200 micrograms per kilogram of bodyweight; cited from earlier work
[3] = autoclave temperatures; cited from earlier work
[4] = serum levels of ivermectin after administration to the nasal pharynx; assay type: in vivo, beef steers
Description: To study the dose/response efficacy of nasal administration of macrocyclic lactone parasicides, three (3) beef steers of mixed breeding were used to evaluate three treatments. These three treatments were:
Treatments were applied and cattle were bled via jugular venipuncture at 0, 6, 24, 48, and 96 hours post-dosing.
Table I recites serum levels of ivermectin, in nanograms per milliliter, for the three treatments recited above at 0, 6, 24, 48, and 96 hours post dosing by nasal administration. Each treatment included delivering a 1 ml mixture comprising ivermectin and propylene glycol to the nasal pharnyx of the animal.

[5] = topical, 500 micrograms per kilogram body weight; cited from earlier work
Haemonchus contortus = conditions: cited from earlier work

In the case of ivermectin, the “inhibition of pharyngeal pumping compared with motility” value [1] is given as “more potent inhibition of pharyngeal pumping than motility”, the “serum level sufficient to protect the animal against reinfestation of most parasites” value (most parasites) is given as > 2 ng/mL and the CMAX serum level [2] is given as “about 30 ng/ml”. The thermal stability [3] was “subject to decomposition at autoclave temperatures”, the “serum level of ivermectin” value ([4]; Treatment 1, nasal, about 248 μg/kg in propylene glycol, 0 Hours) was 0.19 nanograms per milliliter and the “serum level of ivermectin” value ([4]; Treatment 1, nasal, about 248 μg/kg in propylene glycol, 6 Hours) was 5.87 nanograms per milliliter. The “serum level of ivermectin” value ([4]; Treatment 1, nasal, about 248 μg/kg in propylene glycol, 24 Hours) was 15.24 nanograms per milliliter, the “serum level of ivermectin” value ([4]; Treatment 1, nasal, about 248 μg/kg in propylene glycol, 48 Hours) was 11.22 nanograms per milliliter and the “serum level of ivermectin” value ([4]; Treatment 1, nasal, about 248 μg/kg in propylene glycol, 96 Hours) was 7.58 nanograms per milliliter. For the same substance, the “maximum serum level CMAX(1)” value ([4]; Treatment 1, nasal, about 248 micrograms per kilogram body weight) was “about 15 nanograms of ivermectin per ml of blood”, the “CMAX(1)” value ([4]; Treatment 1, nasal, about 248 micrograms per kilogram, as restated) was “greater than 15 ng/ml” and the “serum level of ivermectin” value ([4]; Treatment 2, nasal, about 409 μg/kg in propylene glycol, 0 Hours) was 0.21 nanograms per milliliter. The “serum level of ivermectin” value ([4]; Treatment 2, nasal, about 409 μg/kg in propylene glycol, 6 Hours) was 6.58 nanograms per milliliter, the “serum level of ivermectin” value ([4]; Treatment 2, nasal, about 409 μg/kg in propylene glycol, 24 Hours) was 24.48 nanograms per milliliter and the “serum level of ivermectin” value ([4]; Treatment 2, nasal, about 409 μg/kg in propylene glycol, 48 Hours) was 19.71 nanograms per milliliter. For the same substance, the “serum level of ivermectin” value ([4]; Treatment 2, nasal, about 409 μg/kg in propylene glycol, 96 Hours) was 13.88 nanograms per milliliter, the “maximum serum level CMAX(2)” value ([4]; Treatment 2, nasal, about 409 micrograms per kilogram body weight) was “about 24 nanograms of ivermectin per ml of blood” and the “serum level of ivermectin” value ([4]; Treatment 3, nasal, about 872 μg/kg in propylene glycol, 0 Hours) was 0.22 nanograms per milliliter. For the same substance, the “serum level of ivermectin” value ([4]; Treatment 3, nasal, about 872 μg/kg in propylene glycol, 6 Hours) was 22.51 nanograms per milliliter, the “serum level of ivermectin” value ([4]; Treatment 3, nasal, about 872 μg/kg in propylene glycol, 24 Hours) was 40.79 nanograms per milliliter and the “serum level of ivermectin” value ([4]; Treatment 3, nasal, about 872 μg/kg in propylene glycol, 48 Hours) was 30.53 nanograms per milliliter. The “serum level of ivermectin” value ([4]; Treatment 3, nasal, about 872 μg/kg in propylene glycol, 96 Hours) was 19.38 nanograms per milliliter, the “maximum serum level CMAX(3)” value ([4]; Treatment 3, nasal, about 872 micrograms per kilogram body weight) was “about 41 nanograms of ivermectin per ml of blood” and the “time for which serum levels of ivermectin exceed 2 ng ml^−1” value ([4]; all three treatments, nasal) was > 96 h. For the same substance, the CMAX [5] was 12.2 ng/mL and the “inhibition of pharyngeal pumping compared with motility” value (Haemonchus contortus) was “more potent inhibition of pharyngeal pumping than motility”.
